# Experimental data as given in patent publication US6787132B1, “Combined chemo-immunotherapy with liposomal drugs and cytokines” (Yissum Research Development Company of the Hebrew …, priority 1997, dated 2004).
# Legend:
# Type in all cases: in vivo, BALB/c mice
# [1] = system: M109 tumor cells (lung adenocarcinoma); experiment: Lung adenocarcinoma model: survival of mice injected intraperitoneally with M109 tumor cells, IL-2 in MLV; conditions: 5×10^5 M109 cells i.p. day 0, ADR or DOXIL 8 mg/kg i.v. day 7, MLV-IL-2 50,000 CU/mouse i.p. days 10, 13, 16
# Protocol: B1. Lung Adenocarcinoma Model: IL-2 in MLV. Six groups of BALB/c mice were injected intraperitoneally with 5×10^5 M109 tumor cells (day 0). Free adriamycin or DOXIL®, respectively, were administered intravenously on day 7 at a dose of 8 mg/kg, and intraperitoneal cytokine treatment was initiated 3 days later. Liposomal IL-2 (formulation B; MLV DMPC/DMPG (9:1 mole ratio) liposomes containing IL-2) was given once daily (50,000 CU/mouse) on days 10, 13 and 16. Control groups received no treatment or received the IL-2 treatment alone.
# (§1) Each group, consisting of 8-9 mice, was inspected for survival up to 100 days after tumor inoculation.
# [2] = system: M109 tumor cells (lung adenocarcinoma); experiment: Metastatic lung adenocarcinoma model: survival of mice injected intravenously with M109 tumor cells, IL-2 in PEGylated SUV; conditions: 5×10^5 M109 cells i.v. day 0, ADR or DOXIL 8 mg/kg i.v. day 7, SSL-IL-2 50,000 CU/mouse i.v. days 11, 14, 17
# Protocol: B2. Metastatic Lung Adenocarcinoma Model: IL-2 in MLV (Formulation B) and PEG-Derivatized SUV (SSL). In this experiment, BALB/c mice were injected intravenously with 5×10^5 M109 tumor cells (day 0). Free adriamycin or DOXIL ®, respectively, were administered intravenously on day 7 (8 mg/kg), followed […] by intravenous cytokine treatment. Liposomal IL-2 (Formulation A; PEGylated SUV containing IL-2) was given once daily (50,000 CU/mouse) on days 11, 14 and 17. Control groups received no treatment or received the IL-2 treatment alone.
# as §1
# M109 tumor cells = experiment: Second, more extensive M109 study: free or liposomal adriamycin with free IL-2, SSL-IL-2 or MLV-IL-2; conditions: 5×10^5 M109 cells i.p.; ADR or DOXIL 8 mg/kg i.p. day 7; IL-2 50,000 CU/mouse i.v. days 10, 13, 16; observed up to 120 days
# Protocol: In a second, more extensive study, nine groups of BALB/c mice were injected intraperitoneally with 5×10^5 M109 tumor cells. Free adriamycin or DOXIL® (8 mg/kg) were administered intraperitoneally 7 days later, followed 3 days later by intravenous cytokine treatment. The cytokine, given once daily (50,000 CU/mouse) on days 10, 13 and 16, consisted of free IL-2, IL-2 in Formulation A (Stealth® PEGylated SUV), or IL-2 in Formulation B (9:1 molar DMPC/DMPG MLV).
# Each group, consisting of 8 mice, and an untreated control group of 11 mice, were inspected for survival up to 120 days after tumor inoculation.
# [3] = system: C26 colon carcinoma cells; experiment: Subcutaneous colon carcinoma model (footpad), IL-2 in MLV; conditions: 10^5 C26 cells in footpad, 8 mg/kg free or liposomal adriamycin i.v. day 7, IL-2 i.p.
# Protocol: B3. Subcutaneous colon carcinoma model: IL-2 in MLV. In this test, 7 groups of BALB/c mice were injected in the footpad with 10^5 C26 colon carcinoma cells.
smiles,measurement,setting,value
"COc1cccc2c1C(=O)c1c(O)c3c(c(O)c1C2=O)C[C@@](O)(C(=O)CO)C[C@@H]3O[C@H]1C[C@H](N)[C@H](O)[C@H](C)O1 [ADR, adriamycin (doxorubicin)]",MEDIAN SURVIVAL,[1]; observed up to 100 days,42 days
same,NUMBER OF SURVIVING MICE/TOTAL,[1]; survival up to 100 days,0/8
same,MEDIAN SURVIVAL,[2]; observed up to 100 days,56 days
same,NUMBER OF SURVIVING MICE/TOTAL,[2]; survival up to 100 days,2/8
same,MEDIAN SURVIVAL,M109 tumor cells,100 days
same,NUMBER OF TUMOR FREE MICE/TOTAL,M109 tumor cells,4/8
same,"NUMBER OF TUMOR FREE MICE, DAY 30",[3]; day 30,0/7
same,"NUMBER OF TUMOR FREE MICE, DAY 65",[3]; day 65,0/7
